Key:
Experiment in all cases: KINOMEscan kinase binding assay (Eurofins/DiscoveRx), % Ctrl
kinases [1] = target: T1, kinases (Homo sapiens, UniProt P00519, Q252H)
T1 construct: purchased Eurofins/DiscoveRx; host or cells: E. coli BL21-derived host (T7 phage display) for most kinases; HEK-293 for the rest
How it was run: (§1)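 Competition binding: DNA- or phage-tagged kinases (T7 phage in E. coli BL21, or HEK-293-expressed) with immobilized biotinylated ligand beads and test compound, 1 h at room temperature. Bead-bound kinase eluted and quantified by qPCR; % Ctrl = (compound − positive control)/(negative control − positive control) ×100 at a single compound concentration.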

kinases [2] = target: T2, kinases (Homo sapiens, UniProt P10721, T670I/V559D)
T2 construct: purchased Eurofins/DiscoveRx; host or cells: E. coli BL21-derived host (T7 phage display) for most kinases; HEK-293 for the rest
T2 sequence (P10721 26-976 V559D/T670I): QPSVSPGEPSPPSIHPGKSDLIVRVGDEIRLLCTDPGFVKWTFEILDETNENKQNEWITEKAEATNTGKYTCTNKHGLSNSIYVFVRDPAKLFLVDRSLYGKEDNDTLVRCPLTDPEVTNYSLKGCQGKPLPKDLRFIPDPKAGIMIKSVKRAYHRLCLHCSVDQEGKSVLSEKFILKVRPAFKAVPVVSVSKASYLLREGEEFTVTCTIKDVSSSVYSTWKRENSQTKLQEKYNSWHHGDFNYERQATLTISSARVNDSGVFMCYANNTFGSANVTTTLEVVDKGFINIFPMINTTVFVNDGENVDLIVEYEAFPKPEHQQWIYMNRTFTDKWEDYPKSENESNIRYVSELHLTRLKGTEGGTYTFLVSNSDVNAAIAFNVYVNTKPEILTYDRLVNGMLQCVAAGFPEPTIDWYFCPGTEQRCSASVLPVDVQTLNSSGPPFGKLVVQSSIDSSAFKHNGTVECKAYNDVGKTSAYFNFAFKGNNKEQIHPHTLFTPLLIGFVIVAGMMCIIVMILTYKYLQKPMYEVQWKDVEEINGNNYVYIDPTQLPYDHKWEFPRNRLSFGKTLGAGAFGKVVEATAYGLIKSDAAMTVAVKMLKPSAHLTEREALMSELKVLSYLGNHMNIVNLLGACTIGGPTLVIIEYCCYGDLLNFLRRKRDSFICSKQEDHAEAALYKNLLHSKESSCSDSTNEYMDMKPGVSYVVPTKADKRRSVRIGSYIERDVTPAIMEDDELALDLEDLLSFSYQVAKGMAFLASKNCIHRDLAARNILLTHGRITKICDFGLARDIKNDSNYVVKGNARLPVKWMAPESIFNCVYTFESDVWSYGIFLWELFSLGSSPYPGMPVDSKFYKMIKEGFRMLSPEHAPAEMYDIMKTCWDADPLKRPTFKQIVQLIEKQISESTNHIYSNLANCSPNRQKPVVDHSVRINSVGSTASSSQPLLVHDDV
How it was run: as §1

kinases [3] = target: T3, kinases (Homo sapiens, UniProt P36888, N841I)
T3 construct: purchased Eurofins/DiscoveRx; host or cells: E. coli BL21-derived host (T7 phage display) for most kinases; HEK-293 for the rest
T3 sequence (P36888 27-993 N841I): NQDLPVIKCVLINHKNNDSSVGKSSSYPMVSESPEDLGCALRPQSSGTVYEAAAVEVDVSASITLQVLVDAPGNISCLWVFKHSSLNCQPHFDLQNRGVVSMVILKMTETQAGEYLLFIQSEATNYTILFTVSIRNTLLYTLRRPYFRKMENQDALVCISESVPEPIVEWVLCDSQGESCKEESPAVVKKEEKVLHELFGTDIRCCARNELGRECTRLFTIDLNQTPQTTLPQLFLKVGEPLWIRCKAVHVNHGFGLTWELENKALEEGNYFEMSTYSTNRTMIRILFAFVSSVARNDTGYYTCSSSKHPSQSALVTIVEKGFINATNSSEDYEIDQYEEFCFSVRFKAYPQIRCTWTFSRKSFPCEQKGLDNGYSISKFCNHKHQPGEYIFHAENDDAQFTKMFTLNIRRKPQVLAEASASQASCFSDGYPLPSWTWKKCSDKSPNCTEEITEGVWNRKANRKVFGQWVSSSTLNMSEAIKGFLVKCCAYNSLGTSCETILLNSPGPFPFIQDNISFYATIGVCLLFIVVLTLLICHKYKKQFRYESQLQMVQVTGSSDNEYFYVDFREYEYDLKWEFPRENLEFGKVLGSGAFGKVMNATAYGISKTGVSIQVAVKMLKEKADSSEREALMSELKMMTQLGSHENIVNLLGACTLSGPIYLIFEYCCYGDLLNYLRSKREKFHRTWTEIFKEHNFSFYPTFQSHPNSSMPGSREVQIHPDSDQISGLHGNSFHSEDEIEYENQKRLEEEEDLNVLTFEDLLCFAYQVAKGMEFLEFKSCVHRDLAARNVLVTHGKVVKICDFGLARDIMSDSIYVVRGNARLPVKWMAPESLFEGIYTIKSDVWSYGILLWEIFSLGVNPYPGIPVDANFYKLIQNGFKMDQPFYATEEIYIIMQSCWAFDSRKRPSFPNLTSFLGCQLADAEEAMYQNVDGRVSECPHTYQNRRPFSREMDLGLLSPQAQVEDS
How it was run: as §1

kinases [4] = target: T4, kinases (Homo sapiens, UniProt P00533, G719C)
T4 construct: purchased Eurofins/DiscoveRx; host or cells: E. coli BL21-derived host (T7 phage display) for most kinases; HEK-293 for the rest
How it was run: as §1

kinases [5] = tested on: kinases
How it was run: as §1

kinases [6] = target: T5, kinases (Homo sapiens, UniProt P10721)
T5 construct: purchased Eurofins/DiscoveRx; host or cells: E. coli BL21-derived host (T7 phage display) for most kinases; HEK-293 for the rest
T5 sequence (P10721 26-976): as the sequence (P10721 26-976 V559D/T670I) above, with D534V, I645T counted along it
How it was run: as §1

kinases [7] = target: T6, kinases (Homo sapiens, UniProt P00519, T315I)
T6 construct: purchased Eurofins/DiscoveRx; host or cells: E. coli BL21-derived host (T7 phage display) for most kinases; HEK-293 for the rest
How it was run: as §1

[8] = 1 μM; ABL1(Q252H)-nonphosphorylated
[9] = 1 μM; ABL1(Q252H)-phosphorylated
[10] = 1 μM; EGFR(L747-E749del, A750P)
[11] = 1 μM; EGFR(L747-S752del, P753S)
[12] = 1 μM; ABL1(T315I)-nonphosphorylated
[13] = 1 μM; ABL1(T315I)-phosphorylated

Row | % Ctrl, ABL1(Q252H)-nonphosphorylated (kinases [1]; [8]) [% Ctrl] | % Ctrl, ABL1(Q252H)-phosphorylated (kinases [1]; [9]) [% Ctrl] | % Ctrl, KIT(V559D, T670I) (kinases [2]; 1 μM; KIT(V559D, T670I)) [% Ctrl] | % Ctrl, FLT3(N841I) (kinases [3]; 1 μM; FLT3(N841I)) [% Ctrl] | % Ctrl, EGFR(G719C) (kinases [4]; 1 μM; EGFR(G719C)) [% Ctrl] | % Ctrl, EGFR(L747-E749del, A750P) (kinases [5]; [10]) [% Ctrl] | % Ctrl, EGFR(L747-S752del, P753S) (kinases [5]; [11]) [% Ctrl] | % Ctrl, EGFR(L747-T751del, Sins) (kinases [5]; 1 μM; EGFR(L747-T751del, Sins)) [% Ctrl] | % Ctrl, FLT3(ITD) (kinases [5]; 1 μM; FLT3(ITD)) [% Ctrl] | % Ctrl, FLT3(ITD, D835V) (kinases [5]; 1 μM; FLT3(ITD, D835V)) [% Ctrl] | % Ctrl, FLT3(ITD, F691L) (kinases [5]; 1 μM; FLT3(ITD, F691L)) [% Ctrl] | % Ctrl, KIT (kinases [6]; 1 μM; KIT) [% Ctrl] | % Ctrl, KIT-autoinhibited (kinases [6]; 1 μM; KIT-autoinhibited) [% Ctrl] | % Ctrl, ABL1(T315I)-nonphosphorylated (kinases [7]; [12]) [% Ctrl] | % Ctrl, ABL1(T315I)-phosphorylated (kinases [7]; [13]) [% Ctrl] | SMILES | other results
1 | 55 | 97 | 92 | 98 | 92 | 89 | 86 | 85 | 100 | 38 | 47 | 100 | 81 | 68 | 75 | Cc1cc2c([nH]1)/C=C1\C(=O)Nc3ccc(cc31)-c1ccnn1CCNCCNC2=O [Ex. 43, [19a(20)Z]-2-methyl-5,6,7,8,9,10-hexahydro-15,17-(ethanediylidene)pyrazolo[1,5-g]dipyrrolo[3,4-k:2′,3′-n][1,4,7]triazacyclohexadecine-4,19(1H,18H)-dione] | –
2 | – | – | – | – | – | – | – | – | – | – | – | – | – | – | – | Cc1cc2c([nH]1)/C=C1\C(=O)Nc3ccc(cc31)-c1c(noc1C)CNCCN(C)C2=O [Ex. 139, [3a(4)Z]-6,9,16-trimethyl-10,11,12,13-tetrahydro-2H-1,17-(ethanediylidene)[1,2]oxazolo[4,3-m]dipyrrolo[3,2-f:3′,4′-i][1,4]diazacyclopentadecine-3,8(5H,9H)-dione] | % Ctrl, ABL1(Q252H)-nonphosphorylated (kinases [1]; target ABL1(Q252H)-nonphosphorylated; 1 μM): 7.8 % Ctrl; % Ctrl, ABL1(Q252H)-phosphorylated (kinases [1]; target ABL1(Q252H)-phosphorylated; 1 μM): 5.1 % Ctrl; % Ctrl, KIT(V559D, T670I) (kinases [2]; target KIT(V559D, T670I); 1 μM): 69 % Ctrl; % Ctrl, FLT3(N841I) (kinases [3]; target FLT3(N841I); 1 μM): 12 % Ctrl; % Ctrl, EGFR(G719C) (kinases [4]; target EGFR(G719C); 1 μM): 82 % Ctrl; % Ctrl, EGFR(L747-E749del, A750P) (kinases [5]; target EGFR(L747-E749del, A750P); 1 μM): 71 % Ctrl; % Ctrl, EGFR(L747-S752del, P753S) (kinases [5]; target EGFR(L747-S752del, P753S); 1 μM): 77 % Ctrl; % Ctrl, EGFR(L747-T751del, Sins) (kinases [5]; target EGFR(L747-T751del, Sins); 1 μM): 81 % Ctrl; % Ctrl, FLT3(ITD) (kinases [5]; target FLT3(ITD); 1 μM): 8.1 % Ctrl; % Ctrl, FLT3(ITD, D835V) (kinases [5]; target FLT3(ITD, D835V); 1 μM): 1.2 % Ctrl; % Ctrl, FLT3(ITD, F691L) (kinases [5]; target FLT3(ITD, F691L); 1 μM): 0.9 % Ctrl; % Ctrl, KIT-autoinhibited (kinases [6]; target KIT-autoinhibited; 1 μM): 81 % Ctrl; % Ctrl, KIT (kinases [6]; target KIT; 1 μM): 94 % Ctrl; % Ctrl, ABL1(T315I)-nonphosphorylated (kinases [7]; target ABL1(T315I)-nonphosphorylated; 1 μM): 0.1 % Ctrl; % Ctrl, ABL1(T315I)-phosphorylated (kinases [7]; target ABL1(T315I)-phosphorylated; 1 μM): 3 % Ctrl
3 | – | – | – | – | – | – | – | – | – | – | – | – | – | – | – | Cc1cc2c([nH]1)/C=C1\C(=O)Nc3ccc(cc31)-c1c(noc1C(C)C)COCCN(C)C2=O [Ex. 161, [3a(4)Z]-9-methyl-16-(propan-2-yl)-10,11-dihydro-2H,13H-1,17-(ethanediylidene)[1,2]oxazolo[4,3-m]dipyrrolo[3,2-f:3′,4′-i][1,4]oxazacyclopentadecine-3,8(5H,9H)-dione] | % Ctrl, ABL1(Q252H)-nonphosphorylated (kinases [1]; 1 μM; target ABL1(Q252H)-nonphosphorylated): 100 % Ctrl; % Ctrl, ABL1(Q252H)-phosphorylated (kinases [1]; 1 μM; target ABL1(Q252H)-phosphorylated): 79 % Ctrl; % Ctrl, KIT(V559D, T670I) (kinases [2]; 1 μM; target KIT(V559D, T670I)): 95 % Ctrl; % Ctrl, FLT3(N841I) (kinases [3]; 1 μM; target FLT3(N841I)): 39 % Ctrl; % Ctrl, EGFR(G719C) (kinases [4]; 1 μM; target EGFR(G719C)): 89 % Ctrl; % Ctrl, EGFR(L747-E749del, A750P) (kinases [5]; 1 μM; target EGFR(L747-E749del, A750P)): 100 % Ctrl; % Ctrl, EGFR(L747-S752del, P753S) (kinases [5]; 1 μM; target EGFR(L747-S752del, P753S)): 80 % Ctrl; % Ctrl, EGFR(L747-T751del, Sins) (kinases [5]; 1 μM; target EGFR(L747-T751del, Sins)): 93 % Ctrl; % Ctrl, FLT3(ITD) (kinases [5]; 1 μM; target FLT3(ITD)): 85 % Ctrl; % Ctrl, FLT3(ITD, D835V) (kinases [5]; 1 μM; target FLT3(ITD, D835V)): 83 % Ctrl; % Ctrl, FLT3(ITD, F691L) (kinases [5]; 1 μM; target FLT3(ITD, F691L)): 82 % Ctrl; % Ctrl, KIT (kinases [6]; 1 μM; target KIT): 98 % Ctrl; % Ctrl, KIT-autoinhibited (kinases [6]; 1 μM; target KIT-autoinhibited): 100 % Ctrl; % Ctrl, ABL1(T315I)-nonphosphorylated (kinases [7]; 1 μM; target ABL1(T315I)-nonphosphorylated): 90 % Ctrl; % Ctrl, ABL1(T315I)-phosphorylated (kinases [7]; 1 μM; target ABL1(T315I)-phosphorylated): 85 % Ctrl
4 | 2.8 | 11 | 34 | 0 | 92 | 100 | 94 | 68 | 2.1 | 0 | 0 | 82 | 73 | 4.5 | 5.8 | Cc1cc2c([nH]1)/C=C1\C(=O)Nc3ccc(cc31)OCCOCCN(C)C2=O [Ex.91, [16a(17)Z]-2,5-dimethyl-6,7,9,10-tetrahydro-1H-12,14-(ethanediylidene)dipyrrolo[3,2-i:3′,4′-l][1,4,7]dioxazacyclopentadecine-4,16(5H,15H)-dione] | –
5 | 0 | 0.05 | 27 | 0 | 8 | 22 | 48 | 54 | 0 | 0 | 0 | 42 | 95 | 0 | 0.1 | Cc1cc2c([nH]1)/C=C1\C(=O)Nc3ccc(cc31)-c1cnn(C)c1CNCCN(C)C2=O [Ex. 125, [3a(4)Z]-6,9,14-trimethyl-9,10,11,12,13,14-hexahydro-1,17-(ethanediylidene)pyrazolo[4,3-m]dipyrrolo[3,2-f:3′,4′-i][1,4]diazacyclopentadecine-3,8(2H,5H)-dione] | –
6 | 0 | 0.2 | 0.05 | 0 | 93 | 31 | 50 | 59 | 0.85 | 0 | 0.6 | 1.1 | 13 | 0 | 1.1 | Cc1cc2c([nH]1)/C=C1\C(=O)Nc3cc(Cl)c(cc31)OCCOCCN(C)C2=O [Ex. 131, [16a(17)Z]-19-chloro-2,5-dimethyl-6,7,9,10-tetrahydro-1H-12,14-(ethanediylidene)dipyrrolo[3,2-i:3′,4′-l][1,4,7]dioxazacyclopentadecine-4,16(5H,15H)-dione] | –
